Test results as given in PubChem BioAssay AID192 (DTP/NCI, 2004).
Several values for one entry are separate records, joined by “and”; a condition that tells them apart may be missing. Equal entries are not always repeated. Inconclusive results and toxic doses are left out. The calls were made as follows: active = survival T/C of 150% or more; inactive = T/C below 125% in these data.

Tested on: BDF1 mice, B16 melanoma ip, median survival T/C
Test: NCI In Vivo Anticancer Drug Screen. Data for tumor model B16 Melanoma (intraperitoneal) in B6D2F1 (BDF1) mice
Settings: endpoint: median survival time, higher = longer survival
How it was run: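 Values are ratios of treated (T) to vehicle-control (C) measurements of survival or tumor size in tumor-bearing mice.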

[1] = dose: 50.0 mg/kg/injection, schedule: Q01DX009 (ip), vehicle: saline
[2] = dose: 100.0 mg/kg/injection, schedule: Q04DX003 (ip), vehicle: Klucel (hydroxypropylcellulose) (HPC)
[3] = dose: 200.0 mg/kg/injection, schedule: Q04DX003 (ip), vehicle: Klucel (hydroxypropylcellulose) (HPC)
[4] = dose: 400.0 mg/kg/injection, schedule: Q04DX003 (ip), vehicle: Klucel (hydroxypropylcellulose) (HPC)
[5] = dose: 12.5 mg/kg/injection, schedule: Q01DX009 (ip), vehicle: saline with Tween-80
[6] = dose: 25.0 mg/kg/injection, schedule: Q01DX009 (ip), vehicle: saline with Tween-80
[7] = dose: 50.0 mg/kg/injection, schedule: Q01DX009 (ip), vehicle: saline with Tween-80
[8] = dose: 100.0 mg/kg/injection, schedule: Q01DX009 (ip), vehicle: Klucel (hydroxypropylcellulose) (HPC)
[9] = dose: 200.0 mg/kg/injection, schedule: Q01DX009 (ip), vehicle: Klucel (hydroxypropylcellulose) (HPC)
[10] = dose: 400.0 mg/kg/injection, schedule: Q01DX009 (ip), vehicle: Klucel (hydroxypropylcellulose) (HPC)
[11] = dose: 0.02 mg/kg/injection, schedule: Q01DX009 (ip), vehicle: saline with Tween-80
[12] = dose: 12.5 mg/kg/injection, schedule: Q01DX009 (ip), vehicle: Klucel (hydroxypropylcellulose) (HPC)
[13] = dose: 25.0 mg/kg/injection, schedule: Q01DX009 (ip), vehicle: Klucel (hydroxypropylcellulose) (HPC)
[14] = dose: 50.0 mg/kg/injection, schedule: Q01DX009 (ip), vehicle: Klucel (hydroxypropylcellulose) (HPC)
[15] = dose: 100.0 mg/kg/injection, schedule: Q01DX009 (ip), vehicle: saline with Tween-80
[16] = dose: 200.0 mg/kg/injection, schedule: Q01DX009 (ip), vehicle: saline with Tween-80
[17] = dose: 400.0 mg/kg/injection, schedule: Q01DX009 (ip), vehicle: saline with Tween-80
[18] = dose: 6.25 mg/kg/injection, schedule: Q01DX009 (ip), vehicle: Klucel (hydroxypropylcellulose) (HPC)

Measured: T/C

CCCCNCC1COc2cccc(OCC)c2O1 (centres undefined)
inactive: dose: 3.12 mg/kg/injection, schedule: Q01DX009 (ip), vehicle: saline 120 % of control | dose: 6.25 mg/kg/injection, schedule: Q01DX009 (ip), vehicle: saline 95 % of control | dose: 12.5 mg/kg/injection, schedule: Q01DX009 (ip), vehicle: saline 97 % of control | dose: 25.0 mg/kg/injection, schedule: Q01DX009 (ip), vehicle: saline 105 % of control | [1] 100 % of control

CC(=O)Oc1cc(-c2c(C)cc(C)cc2C)c(OC(C)=O)cc1C
inactive: [2] 93 % of control | [3] 91 % of control | [4] 97 % of control

Cn1c(C(Cl)Cl)nc2ccccc2c1=O
inactive: [5] 110 % of control | [6] 105 % of control | [7] 105 % of control

COc1ccc(C(CC(=O)c2ccc3c(c2)OCO3)C(=O)O)cc1OC (centres undefined)
inactive: [8] 96 % of control | [9] 100 % of control | [10] 100 % of control

O=C(Nc1cccc2ccccc12)Oc1ccccc1Cc1ccccc1
inactive: dose: 100.0 mg/kg/injection, schedule: Q04DX003 (ip), vehicle: saline 100 % of control | dose: 200.0 mg/kg/injection, schedule: Q04DX003 (ip), vehicle: saline 106 % of control | dose: 400.0 mg/kg/injection, schedule: Q04DX003 (ip), vehicle: saline 106 % of control

CN(C)/C=C/C(=O)c1ccccc1[N+](=O)[O-]
inactive: [8] 115 % of control | [2] 95 % of control | [9] 100 % of control | [3] 92 % of control | [10] 93 % of control | [4] 88 % of control

C[C@@H]1CC[C@]2(C)CC[C@]3(C)C(=CC[C@@H]4[C@@]5(C)CC[C@@H](OC(=O)c6ccc(O)cc6)C(C)(C)[C@@H]5C[C@H](O)[C@]43C)[C@@H]2[C@H]1C(=O)O
inactive: [11] 96 % of control | dose: 0.05 mg/kg/injection, schedule: Q01DX009 (ip), vehicle: saline with Tween-80 91 % of control | dose: 0.1 mg/kg/injection, schedule: Q01DX009 (ip), vehicle: saline with Tween-80 88 % of control

C=C1C(=O)O[C@@H]2[C@H]3O[C@]3(C)CCC=C(C)CC[C@@H]12
inactive: [12] 92 % of control | [13] 87 % of control | [14] 92 % of control

COC(=O)[C@]1(C)CCC[C@]2(C)[C@H]3CC4OO[C@@]3(CC[C@H]21)[C@H]1O[C@@]41C(C)C
inactive: [15] 100 % of control | [16] 113 % of control

NC(Cc1ccc(Cl)cc1)C(=O)O (centres undefined)
inactive: [15] 123 % of control | [16] 115 % of control | [17] 104 % of control

S=C(Cc1ccccc1)N1CCN(c2ccc(Cl)cc2)CC1
inactive: [7] 100 % of control | [15] 99 % of control | [16] 93 % of control

c1ccc(CSC2=NCCS2)cc1
inactive: [15] 102 % of control | [16] 105 % of control | [17] 97 % of control

Cc1cccc(Cl)c1NC(=O)Cn1cccc1
inactive: [13] 108 % of control | [14] 108 % of control | [8] 118 % of control

O=S(=O)(CCCl)c1ccc2ccccc2c1
inactive: [18] 100 % of control | [12] 104 % of control | [13] 106 % of control | [14] 104 % of control

COC(=O)c1ccc(=O)c2nc3/c(=C/O)c(O)cc(=O)c3[nH]c12
inactive: dose: 0.01 mg/kg/injection, schedule: Q01DX009 (ip), vehicle: saline with Tween-80 102 % of control | dose: 0.01 mg/kg/injection, schedule: Q04DX003 (ip), vehicle: saline with Tween-80 91 % of control | [11] 90 % of control | dose: 0.02 mg/kg/injection, schedule: Q04DX003 (ip), vehicle: saline with Tween-80 102 % of control | dose: 0.04 mg/kg/injection, schedule: Q01DX009 (ip), vehicle: saline with Tween-80 95 % of control | dose: 0.04 mg/kg/injection, schedule: Q04DX003 (ip), vehicle: saline with Tween-80 106 % of control

COC1=C2CC(C)CC(OC)C(O)C(C)/C=C(\C)C(OC(N)=O)C(OC)/C=C\C=C(/C)C(=O)NC(=C(/C=N/N(C)C)C1=O)C2=O (centres undefined)
inactive: dose: 12.5 mg/kg/injection, schedule: Q01DX005 (ip), vehicle: other 101 % of control | dose: 25.0 mg/kg/injection, schedule: Q01DX005 (ip), vehicle: other 101 % of control | dose: 50.0 mg/kg/injection, schedule: Q01DX005 (ip), vehicle: other 101 % of control | dose: 100.0 mg/kg/injection, schedule: Q01DX005 (ip), vehicle: other 97 % of control | dose: 200.0 mg/kg/injection, schedule: Q01DX005 (ip), vehicle: other 96 % of control

CC(C)Nc1ccc(Nc2ccc(NC(C)C)cc2)cc1
inactive: dose: 4.5 mg/kg/injection, schedule: Q01DX009 (ip), vehicle: alcohol 100 % of control | dose: 6.75 mg/kg/injection, schedule: Q04DX003 (ip), vehicle: alcohol 102 % of control | dose: 9.0 mg/kg/injection, schedule: Q01DX009 (ip), vehicle: alcohol 92 % of control | dose: 13.5 mg/kg/injection, schedule: Q04DX003 (ip), vehicle: alcohol 92 % of control and 97 % of control

NCCCC(N)(C(=O)O)C(F)F (centres undefined)
inactive: dose: 50.0 mg/kg/injection, schedule: Q01DX009 (ip), vehicle: distilled water + alcohol 94 % of control | dose: 100.0 mg/kg/injection, schedule: Q01DX009 (ip), vehicle: distilled water + alcohol 101 % of control | dose: 200.0 mg/kg/injection, schedule: Q01DX009 (ip), vehicle: distilled water + alcohol 97 % of control | dose: 400.0 mg/kg/injection, schedule: Q01DX009 (ip), vehicle: distilled water + alcohol 100 % of control | dose: 800.0 mg/kg/injection, schedule: Q01DX009 (ip), vehicle: distilled water + alcohol 110 % of control

CSc1ccc(NC(=O)Nc2ccccc2)cc1
inactive: [8] 102 % of control | [9] 98 % of control | [10] 95 % of control

CN(C)N=Nc1ccccc1C(=O)NC#N
inactive: dose: 18.75 mg/kg/injection, schedule: Q01DX009 (ip), vehicle: Klucel (hydroxypropylcellulose) (HPC) 95 % of control | dose: 37.5 mg/kg/injection, schedule: Q01DX009 (ip), vehicle: Klucel (hydroxypropylcellulose) (HPC) 105 % of control

CN(C)CC/C=C1\c2ccccc2C(C)(C)c2ccc(Cl)cc21
inactive: [6] 118 % of control | [7] 92 % of control

O=C(Oc1ccc(OC(=O)c2ccccc2)c2c1C(=O)C(CBr)=C(CBr)C2=O)c1ccccc1
inactive: [18] 97 % of control | [12] 100 % of control | [13] 97 % of control | [14] 101 % of control

NC(=O)c1ncc[nH]c1=O
inactive: [1] 118 % of control | dose: 100.0 mg/kg/injection, schedule: Q01DX009 (ip), vehicle: saline 124 % of control

CC(C)c1ccc(C(c2c(O)c3ccccc3oc2=O)c2c(O)c3ccccc3oc2=O)cc1
inactive: [12] 99 % of control | [13] 97 % of control | [14] 107 % of control

COC(=O)C1(C(=O)OC)C2C(=O)C3C(C21)C3(C(=O)OC(C)(C)C)C(=O)OC(C)(C)C (centres undefined)
inactive: [2] 111 % of control | [3] 101 % of control | [4] 98 % of control

CCCOP(=S)(N1CC1)N1CC1
inactive: [6] 91 % of control | [7] 99 % of control | [15] 91 % of control | [16] 103 % of control

CN(C)c1ccc(C(N)=O)cn1
inactive: dose: 1.5 mg/kg/injection, schedule: Q01DX009 (ip), vehicle: Klucel (hydroxypropylcellulose) (HPC) 124 % of control

Cc1ccc(OS(=O)(=O)c2ccc([N+](=O)[O-])cc2)cc1
inactive: [14] 97 % of control | [8] 97 % of control | [9] 111 % of control

Cn1nc(N)c2ncc(-c3ccc(Cl)cc3)nc21
inactive: [5] 91 % of control | [6] 90 % of control

COc1cccc(NC(=O)Nc2ccccc2Cl)c1
inactive: dose: 100.0 mg/kg/injection, schedule: Q01DX009 (ip), vehicle: gum acacia 96 % of control | dose: 200.0 mg/kg/injection, schedule: Q01DX009 (ip), vehicle: gum acacia 96 % of control | dose: 400.0 mg/kg/injection, schedule: Q01DX009 (ip), vehicle: gum acacia 88 % of control
